{"source": "paper PMC3632115", "about": "(Nucleic Acids Research, 2013)", "molecular_target": "T1, Pif1 (Saccharomyces cerevisiae, UniProt P07271)", "T1 sequence (P07271 46-859)": "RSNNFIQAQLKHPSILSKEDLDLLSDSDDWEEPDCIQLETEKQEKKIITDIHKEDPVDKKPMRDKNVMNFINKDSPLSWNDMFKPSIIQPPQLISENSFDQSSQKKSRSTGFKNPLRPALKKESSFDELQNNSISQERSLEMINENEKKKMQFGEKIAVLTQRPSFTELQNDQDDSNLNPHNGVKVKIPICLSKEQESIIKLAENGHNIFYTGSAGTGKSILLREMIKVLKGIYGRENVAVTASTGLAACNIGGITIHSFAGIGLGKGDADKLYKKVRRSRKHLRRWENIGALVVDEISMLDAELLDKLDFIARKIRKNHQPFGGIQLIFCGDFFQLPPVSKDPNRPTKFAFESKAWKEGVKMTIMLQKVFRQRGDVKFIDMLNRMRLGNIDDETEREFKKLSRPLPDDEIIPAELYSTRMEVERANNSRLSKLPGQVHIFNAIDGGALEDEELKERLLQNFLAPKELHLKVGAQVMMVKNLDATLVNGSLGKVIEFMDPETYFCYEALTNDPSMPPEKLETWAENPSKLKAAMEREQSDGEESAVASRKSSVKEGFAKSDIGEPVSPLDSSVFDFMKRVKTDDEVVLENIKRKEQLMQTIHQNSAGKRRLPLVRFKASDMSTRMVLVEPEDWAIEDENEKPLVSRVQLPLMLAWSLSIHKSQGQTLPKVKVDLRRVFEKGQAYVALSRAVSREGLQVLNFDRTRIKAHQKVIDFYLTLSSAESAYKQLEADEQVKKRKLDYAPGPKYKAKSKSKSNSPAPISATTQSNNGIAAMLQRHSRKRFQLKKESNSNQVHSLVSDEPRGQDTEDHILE", "assay": "stopped-flow Cy3 fluorescence, dissociation of pre-formed Pif1-dT20-Cy3 complex", "assay_type": "binding", "settings": "Buffer T200 (200 mM NaCl, pH 8.3, 5 mM MgCl2), 22°C; 1 mM ADP, 0.1 mg/ml heparin"}
{"smiles": "Nc1ncnc2c1ncn2[C@@H]1O[C@H](COP(=O)(O)OP(=O)(O)O)[C@@H](O)[C@H]1O", "note": "[ADP]", "values": [{"measurement": "apparent rate of dissociation", "value": "This is true also for ADP, the product of ATP hydrolysis (Figure 1b, green)"}]}
